Data: patent US20230241226A1, “COMPOUNDS FOR TARGETED DEGRADATION OF CARRIER PROTEINS AND USES THEREOF” (CeMM - Forschungszentrum für Molekulare Medizin GmbH, priority 2019, published 2023)

Assays:
Format in all cases: cell-based
Strep/HA SLC9A2 = target: T1, Strep/HA SLC9A2 (Homo sapiens, UniProt Q9UBY0); experiment: Selectivity across SLC9 family: degradation of exogenous Strep/HA SLC9A2; details: HAP1; 250 or 750 nM; 16 hours
T1 construct: expressed in transfected cells; host or cells: HAP1 (lentiviral, pRRL Strep-HA; cDNA synthesized by Genescript)
Protocol: (§1) (E) Selectivity of d9A1-2 was tested across HAP1 cell lines expressing Strep/HASLC9A1, 9A4, 9A5, 9A8, 9A2, 9B2, 9A6, 9A9, and 9A3. Cells were treated with varying concentrations of d9A1-2 for 16 hours, after which degradation of the exogenous SLCs was monitored.
(§2) SLC1A5, SLC2A1, SLC2A3, SLC16A1, SLC38A1, SLC38A2 were obtained as gateway-compatible pENTR/pDONR vectors from the Harvard PlasmID Repository. SLC39A7 was obtained from Dharmacon, GE Healthcare. The following vectors were synthesized by Genescript: SLC4A4, SLC7A3, SLC38A9, SLC25A1, SLC9A1, SLC9A2, SLC9A3, SLC9A4, SLC9A5, SLC9A6, SLC9A7, SLC9A8, and SLC9B2. SLC30A9, SLC33A1, SLC35B2, SLC25A26, and MTCH2 were a gift from the RESOLUTE consortium. cDNAs were transferred into gateway-compatible lentiviral expression vectors: pLX305 dTAG vectors (Addgene #91797/8) or pRRL Strep-HA (described previously43, EF1a promotor driven expression) using LR recombination (ThermoFisher Scientific). […]
(§3) For immunoblotting, whole cell extracts were prepared using RIPA lysis buffer (25 mM Tris/HCl pH 7.6, 150 mM NaCl, 1% NP-40, 1% sodium deoxycholate, 0.1% SDS, EDTA-free protease inhibitor (Roche) and phosphatase inhibitors 2+3 (Sigma- Aldrich)). […] Protein extracts were quantified and normalized using the BCA assay (Thermo Scientific). […]

Strep/HA SLC9A8 = target: T2, Strep/HA SLC9A8 (Homo sapiens, UniProt Q9Y2E8); experiment: Selectivity across SLC9 family: degradation of exogenous Strep/HA SLC9A8; details: HAP1; 250 or 750 nM; 16 hours
T2 construct: expressed in transfected cells; host or cells: HAP1 (lentiviral, pRRL Strep-HA; cDNA synthesized by Genescript)
Protocol: as §1, §2, §3

Strep/HA SLC9A3 = target: T3, Strep/HA SLC9A3 (Homo sapiens, UniProt P48764); experiment: Selectivity across SLC9 family: degradation of exogenous Strep/HA SLC9A3; details: HAP1; 250 or 750 nM; 16 hours
T3 construct: expressed in transfected cells; host or cells: HAP1 (lentiviral, pRRL Strep-HA; cDNA synthesized by Genescript)
Protocol: as §1, §2, §3

dTAG-HA SLC16A1 = target: T4, dTAG-HA SLC16A1 (Homo sapiens, UniProt P53985+Q96SW2); experiment: Targeted degradation of dTAG-tagged SLC16A1 (western blot); details: HAP1, 0.5 µM, 24, 48 or 72 hours
T4 construct: expressed in transfected cells
Protocol: (C)HAP1 cells expressing dTAG-HA SLC1A5, 2A3, 30A9, 35B2, MTCH2, and 33A1 were treated for 24 hours with 0.5 µM of dTAG7 or dTAG13, as indicated. HAP1 cells expressing dTAG-HA SLC2A1 and 16A1 were treated for 24 hrs with 0.5 µM of dTAG7. HAP1 cell lines expressing dTAG-HA SLC39A7, dTAG-HA SLC4A4, and SLC7A3-dTAG-HA were treated for 48 hrs with 0.5 µM of dTAG13.
SLC1A5, SLC2A1, SLC2A3, SLC16A1, SLC38A1, SLC38A2 were obtained as gateway-compatible pENTR/pDONR vectors from the Harvard PlasmID Repository. SLC39A7 was obtained from Dharmacon, GE Healthcare. The following vectors were synthesized by Genescript: SLC4A4, SLC7A3, SLC38A9, SLC25A1, SLC9A1, SLC9A2, SLC9A3, SLC9A4, SLC9A5, SLC9A6, SLC9A7, SLC9A8, and SLC9B2. […]
as §3
SLCs were ectopically expressed as fusions to a mutated FKBP domain, also known as the dTAG system. […]

T2 sequence (Q9Y2E8 whole entry): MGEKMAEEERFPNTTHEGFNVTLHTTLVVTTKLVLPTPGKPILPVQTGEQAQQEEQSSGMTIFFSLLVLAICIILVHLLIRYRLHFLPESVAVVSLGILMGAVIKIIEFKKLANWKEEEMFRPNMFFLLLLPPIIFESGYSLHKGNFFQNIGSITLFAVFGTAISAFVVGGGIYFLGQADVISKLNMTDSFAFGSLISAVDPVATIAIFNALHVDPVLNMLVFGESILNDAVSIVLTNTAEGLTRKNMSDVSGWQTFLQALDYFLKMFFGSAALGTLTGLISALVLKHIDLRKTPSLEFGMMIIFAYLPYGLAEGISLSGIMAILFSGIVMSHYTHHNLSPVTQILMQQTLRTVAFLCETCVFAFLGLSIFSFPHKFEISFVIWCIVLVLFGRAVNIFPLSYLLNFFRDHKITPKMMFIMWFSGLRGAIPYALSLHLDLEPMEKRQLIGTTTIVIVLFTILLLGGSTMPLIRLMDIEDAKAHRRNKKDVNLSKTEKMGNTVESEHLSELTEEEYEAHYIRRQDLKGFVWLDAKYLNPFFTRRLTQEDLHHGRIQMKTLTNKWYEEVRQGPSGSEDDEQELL
T3 sequence (P48764 26-834): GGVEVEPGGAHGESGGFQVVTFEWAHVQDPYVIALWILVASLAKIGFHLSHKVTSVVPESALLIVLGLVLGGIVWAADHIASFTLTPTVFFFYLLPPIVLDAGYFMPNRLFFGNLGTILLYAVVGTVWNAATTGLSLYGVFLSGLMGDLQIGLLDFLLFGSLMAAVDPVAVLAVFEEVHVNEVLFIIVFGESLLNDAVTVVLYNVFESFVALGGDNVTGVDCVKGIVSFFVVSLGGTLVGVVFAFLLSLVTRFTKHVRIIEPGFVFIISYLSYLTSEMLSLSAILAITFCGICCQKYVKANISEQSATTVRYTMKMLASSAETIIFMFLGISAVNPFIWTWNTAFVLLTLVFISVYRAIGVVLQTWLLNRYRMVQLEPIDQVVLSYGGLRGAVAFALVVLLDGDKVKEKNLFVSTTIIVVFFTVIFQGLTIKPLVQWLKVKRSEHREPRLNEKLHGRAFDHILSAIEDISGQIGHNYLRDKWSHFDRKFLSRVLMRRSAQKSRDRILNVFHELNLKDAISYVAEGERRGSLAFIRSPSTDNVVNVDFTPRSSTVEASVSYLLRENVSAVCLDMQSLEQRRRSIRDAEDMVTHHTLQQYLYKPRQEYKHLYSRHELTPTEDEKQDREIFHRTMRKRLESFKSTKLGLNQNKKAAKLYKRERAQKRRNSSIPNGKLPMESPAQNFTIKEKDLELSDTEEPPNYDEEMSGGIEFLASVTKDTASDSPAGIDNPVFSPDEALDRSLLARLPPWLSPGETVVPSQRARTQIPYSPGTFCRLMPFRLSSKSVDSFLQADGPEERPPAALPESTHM
T4 sequence (P53985 with tags, fused parts or gaps): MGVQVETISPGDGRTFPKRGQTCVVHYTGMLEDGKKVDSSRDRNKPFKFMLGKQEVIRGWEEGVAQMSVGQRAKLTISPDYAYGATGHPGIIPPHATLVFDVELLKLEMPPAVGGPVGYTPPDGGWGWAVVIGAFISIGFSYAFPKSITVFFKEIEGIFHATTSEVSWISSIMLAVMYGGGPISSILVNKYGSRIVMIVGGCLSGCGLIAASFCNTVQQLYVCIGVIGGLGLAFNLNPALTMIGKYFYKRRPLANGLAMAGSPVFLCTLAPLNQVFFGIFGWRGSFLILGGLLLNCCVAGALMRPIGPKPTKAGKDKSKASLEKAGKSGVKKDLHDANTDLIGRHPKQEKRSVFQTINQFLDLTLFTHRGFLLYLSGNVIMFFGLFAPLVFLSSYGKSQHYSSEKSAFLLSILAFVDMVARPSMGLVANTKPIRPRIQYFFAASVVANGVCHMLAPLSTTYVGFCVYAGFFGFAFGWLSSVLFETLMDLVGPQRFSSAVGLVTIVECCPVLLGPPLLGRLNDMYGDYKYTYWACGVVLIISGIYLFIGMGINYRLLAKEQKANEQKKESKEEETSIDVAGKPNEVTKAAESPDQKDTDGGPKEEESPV
T4 sequence (Q96SW2 whole entry): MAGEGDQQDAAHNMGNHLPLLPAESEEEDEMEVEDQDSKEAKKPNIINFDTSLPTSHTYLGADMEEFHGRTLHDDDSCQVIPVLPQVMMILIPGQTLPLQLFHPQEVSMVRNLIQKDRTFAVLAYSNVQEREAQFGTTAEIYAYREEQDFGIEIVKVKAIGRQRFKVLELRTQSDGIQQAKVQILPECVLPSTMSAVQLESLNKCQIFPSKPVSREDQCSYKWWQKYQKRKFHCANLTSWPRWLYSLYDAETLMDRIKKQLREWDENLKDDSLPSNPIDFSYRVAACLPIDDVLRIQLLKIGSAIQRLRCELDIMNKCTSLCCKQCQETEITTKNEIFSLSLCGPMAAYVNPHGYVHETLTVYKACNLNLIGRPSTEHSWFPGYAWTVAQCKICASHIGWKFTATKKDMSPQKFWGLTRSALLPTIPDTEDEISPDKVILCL
T4 sequence (Q16531 whole entry partner): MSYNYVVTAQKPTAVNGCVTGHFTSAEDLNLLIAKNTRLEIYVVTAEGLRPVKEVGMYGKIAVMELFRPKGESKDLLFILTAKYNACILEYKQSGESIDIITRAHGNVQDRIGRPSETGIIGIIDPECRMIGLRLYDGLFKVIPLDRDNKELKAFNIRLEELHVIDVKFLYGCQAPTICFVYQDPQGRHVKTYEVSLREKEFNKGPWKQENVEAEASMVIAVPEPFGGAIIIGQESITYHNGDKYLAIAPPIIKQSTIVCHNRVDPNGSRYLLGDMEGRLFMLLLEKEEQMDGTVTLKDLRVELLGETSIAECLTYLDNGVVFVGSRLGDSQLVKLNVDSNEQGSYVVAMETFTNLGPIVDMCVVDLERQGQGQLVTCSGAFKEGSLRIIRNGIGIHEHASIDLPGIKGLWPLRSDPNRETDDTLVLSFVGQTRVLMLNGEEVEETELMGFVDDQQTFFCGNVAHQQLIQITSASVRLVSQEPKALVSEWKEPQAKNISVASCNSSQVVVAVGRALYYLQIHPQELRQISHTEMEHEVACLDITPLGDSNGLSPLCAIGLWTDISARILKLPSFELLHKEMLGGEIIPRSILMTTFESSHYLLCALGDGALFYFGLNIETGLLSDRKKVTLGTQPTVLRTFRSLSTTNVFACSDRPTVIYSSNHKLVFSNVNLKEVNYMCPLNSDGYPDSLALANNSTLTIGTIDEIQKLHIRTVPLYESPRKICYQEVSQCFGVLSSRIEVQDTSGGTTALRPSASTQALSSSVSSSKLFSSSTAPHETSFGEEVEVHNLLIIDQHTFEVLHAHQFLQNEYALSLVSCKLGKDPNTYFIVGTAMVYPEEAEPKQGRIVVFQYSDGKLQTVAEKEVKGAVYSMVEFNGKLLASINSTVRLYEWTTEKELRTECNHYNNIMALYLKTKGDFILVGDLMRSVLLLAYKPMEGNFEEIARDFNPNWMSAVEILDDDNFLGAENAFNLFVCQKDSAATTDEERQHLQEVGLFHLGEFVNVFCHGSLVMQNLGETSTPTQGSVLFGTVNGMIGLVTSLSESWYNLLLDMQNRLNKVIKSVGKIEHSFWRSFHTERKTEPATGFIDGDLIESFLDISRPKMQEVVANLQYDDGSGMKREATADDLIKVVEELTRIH
T1 sequence (Q9UBY0 whole entry): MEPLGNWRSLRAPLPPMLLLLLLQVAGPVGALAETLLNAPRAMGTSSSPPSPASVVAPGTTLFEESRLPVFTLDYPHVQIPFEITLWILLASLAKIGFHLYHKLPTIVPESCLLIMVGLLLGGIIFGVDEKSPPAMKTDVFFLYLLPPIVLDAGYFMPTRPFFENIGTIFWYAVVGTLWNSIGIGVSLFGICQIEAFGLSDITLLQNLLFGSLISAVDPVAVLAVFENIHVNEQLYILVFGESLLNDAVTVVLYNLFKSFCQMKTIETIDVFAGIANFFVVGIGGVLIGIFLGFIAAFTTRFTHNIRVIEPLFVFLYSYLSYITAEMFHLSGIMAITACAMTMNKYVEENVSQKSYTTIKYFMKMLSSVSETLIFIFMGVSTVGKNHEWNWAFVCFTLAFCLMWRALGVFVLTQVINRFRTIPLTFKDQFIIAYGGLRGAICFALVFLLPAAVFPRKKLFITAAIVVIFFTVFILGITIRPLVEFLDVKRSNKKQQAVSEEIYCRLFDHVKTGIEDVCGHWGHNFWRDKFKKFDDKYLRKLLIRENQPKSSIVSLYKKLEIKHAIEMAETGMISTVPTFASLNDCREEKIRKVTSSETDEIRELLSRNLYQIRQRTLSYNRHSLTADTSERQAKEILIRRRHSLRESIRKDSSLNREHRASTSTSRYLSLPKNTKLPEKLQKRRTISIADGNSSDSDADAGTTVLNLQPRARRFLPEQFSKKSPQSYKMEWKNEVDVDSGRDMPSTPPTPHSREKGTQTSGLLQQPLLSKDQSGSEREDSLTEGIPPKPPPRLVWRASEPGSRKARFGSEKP

SMILES	degradation of exogenous SLC9A2 (Strep/HA SLC9A2)	abundance of exogenous SLC9A8 (Strep/HA SLC9A8)	abundance of exogenous SLC9A3 (Strep/HA SLC9A3)	reversibility of degradation of the target SLC (dTAG-HA SLC16A1)
Cc1cc(-c2ccc(C(=O)NCCOCCOCCOCCOCCNc3cccc4c3C(=O)N(C3CCC(=O)NC3=O)C4=O)cc2N2CCC(c3[nH]cnc3C)CC2)ccc1F (stereo not shown) [d9A1-2]	prompted degradation	not significantly affected	not significantly affected	
CC[C@H](C(=O)N1CCCC[C@H]1C(=O)O[C@H](CCc1ccc(OC)c(OC)c1)c1ccccc1OCC(=O)NCCCOCCOCCOCCCNC(=O)COc1cccc2c1C(=O)N(C1CCC(=O)NC1=O)C2=O)c1cc(OC)c(OC)c(OC)c1 (stereo partly shown) [dTAG7]				reversible degradation
